Source: patent US20130040979A1, “CCR1 INHIBITORS USEFUL FOR THE TREAMENT OF MULTIPLE MYELOMA AND OTHER DISORDERS” (Millennium Pharmaceuticals, Inc., priority 2007, published 2013)

Experiments:
Format in all cases: cell-based, human
[1] = tested on: MM cell adhesion to fibronectin (FBN); assay: Adhesion assay: multiple myeloma cells to fibronectin; details: 6 hours incubation, FBN 20 μg/mL
Experimental: (§1) Cell lines: The dexamethasone (Dex)-sensitive (MM.1S) human MM cell line was provided by Dr Steven Rosen (Northwestern University, Chicago, Ill.). The INA6 human IL-6-dependent MM cell line was provided by Dr Renate Burger (University of Kiel, Kiel, Germany) (see Burger et al., J. Hematol. 2:42-53 (2001)) and cultured in the presence of 2.5 ng/mL IL-6 (R&D Systems, Minneapolis, Minn.). The OPM1 myeloma cell line was provided by Dr Lief Bergsagel (Mayo Clinic, Scottsdale, Ariz.), and the U266 cell line was obtained from the American Type Culture Collection (Rockville, Md.). All MM cell lines were cultured in RPMI 1640 media (Sigma Chemical) containing 10% fetal bovine serum (FBS), 2 mM L-glutamine, 100 U/mL penicillin, and 100 μg/mL streptomycin (Gibco, Grand Island, N.Y.).
(§2) Multiple myeloma cell lines were labeled with calcein AM (Invitrogen) according to the manufacturer's instructions and plated in a 96-well plates with OCs, fibronectin (FBN; 20 μg/mL), or media, with or without Compound 51. After 6 hours of incubation, plates were washed and fluorescence of the adherent cells was measured using the Multimode Reader Mithras LB 940 (Berthold Technologies, Wildbad, Germany). […] As also shown in FIG. 3, there were no effects on MM cell adhesion to fibronection (FBN).

[2] = tested on: multiple myeloma cell adhesion to osteoclasts; assay: Adhesion assay: multiple myeloma cells to osteoclasts; details: 6 hours incubation; independent of CCR1 expression on MM cells
Experimental: as §1, §2

[3] = tested on: osteoclast activity (bone resorption); assay: Pit formation assay (osteoclast bone resorption on dentin slices); details: 10 nM, 3 weeks
Experimental: Osteoclast activity was assayed by bone resorption enumerating resorption pits. PBMCs were cultured (0.5×10^6 cells/well) on dentin slices (Immunodiagnostic Systems, Boldon, United Kingdom) in 96-well plates as per the manufacturer's guidelines, and then stimulated with RANKL and M-CSF (50 ng/mL); Compound 51 was added as indicated in FIG. 2. After 3 weeks, adherent cells were scraped off gently with 0.1% Triton. Bone slices were washed in distilled water and stained with 1% toluidine solution. Resorption pits were then quantified by light microscopy using the public domain National Institutes of Health (NIH) Image J software version 1.36b. Each pit area assay was performed at least 3 times with PBMCs from different donors.

INA6 cells = assay: Short-term co-culture of osteoclasts and multiple myeloma cells (thymidine uptake); details: 48 hours
Experimental: (§3) Co-culture experiments: Osteoclasts were harvested with cell dissociation buffer (Invitrogen, Carlsbad, Calif.) and seeded in 96-well or 24-well plates (approximately 1.5−3×10^4 cells/cm^2). After washing, multiple myeloma cells were added to the wells and incubated with media or with Compound 51 (10 nM) for the specified times at 37° C. For multiple myeloma cell proliferation, DNA synthesis was measured by tritiated thymidine uptake (3H-TdR; Perkin Elmer, Boston, Mass.), pulsing multiple myeloma cells with 3H-TdR (0.5 μCi/well [0.0185 MBq]L) during the last 8 hours of 48-hour cultures. At the end of the culture, cells were harvested onto paper filters with an automatic cell harvester (Cambridge Technology, Cambridge, Mass.) and counted using the LKB Betaplate scintillation counter (Wallac, Gaithersburg, Md.). To assess cell survival, viable multiple myeloma cells were counted by trypan blue staining.
Osteoclasts were seeded in a 96-well plate at a density of 10^4 cells/well and cocultured with INA6 cells (3×10^4 cells/well) for 48 hours.

[4] = tested on: multiple myeloma cells co-cultured with osteoclasts; assay: Long-term co-culture of osteoclasts and multiple myeloma cells
Source text: MM primary cells: Patient tumor cells were isolated as described in Kiziltepe et al., Blood 110:709-718 (2007). Following appropriate informed consent, obtained in accordance with the Declaration of Helsinki and with approval by the Institutional Review Board of the Dana-Farber Cancer Institute (Boston, Mass.), MM patient cells were separated from bone marrow (BM) samples by antibody-mediated positive selection using anti-CD138 magnetic activated cell separation microbeads (Miltenyi Biotech, Gladbach, Germany).
as §3
Osteoclasts were plated in a 24-well plate (3×10^4 cells/well) with either INA6 mutliple myeloma cells (5×10^3 cells/well) or primary patient multiple myeloma cells (3×10^5 cells/well) for 5 days using the general method described above.

[5] = tested on: osteoclasts generated from peripheral blood mononuclear cells (PBMCs); assay: Osteoclast formation and TRAP assay
Experimental: Osteoclast formation. Osteoclasts were generated from peripheral blood mononuclear cells (PBMCs) from healthy volunteers by Ficoll-Paque gradient separation and cultured in 6-well or 96-well plates (0.5×10^6 cells/cm^2). After 2 hours, nonadherent PBMCs were removed, and adherent cells were cultured for 21 days in α-MEM containing 10% FBS and 1% penicillin-streptomycin (Mediatech, Herndon, Va.), as well as 50 ng/mL of macrophage colony-stimulating factor (M-CSF; R&D Systems, Minneapolis, Minn.) and RANKL (PeproTech, Rocky Hill, N.J.).
After 3 weeks, cells were fixed with citrate-acetone solution and stained for tartrate-resistant acid phosphatase (TRAP) using an acid phosphatase leukocyte staining kit (Sigma Chemical) according to the manufacturer's instructions. TRAP^+ OCs containing 3 or more nuclei per cell were enumerated. Each OC formation assay was performed at least 3 times using PBMCs from different donors.

With `CC(C)(O)c1ccc2c(c1)C(=CCCN1CC[C@](O)(c3ccc(Cl)cc3)C(C)(C)C1)c1cccnc1CO2` [Compound 51, (4S)-4-(4-chlorophenyl)-1-{3-[7-(1-hydroxy-1-methylethyl)[1]benzoxepino[3,4-b]pyridin-5(11H)-ylidene]propyl}-3,3-dimethylpiperidin-4-ol] the “MM cell adhesion to fibronectin (FBN)” value [1] was “no effects”, the “multiple myeloma cell adhesion to osteoclasts” value [2] was “almost complety inhibited” and the “resorptive tracks and pit numbers” value ([3]; dentin slices) was “almost complete abrogation”. For the same compound, the “bone resorption area, mean±SD, of total area per slice” value ([3]; control 8.7%±1.9%, P<0.01) was 2.4%±1.2, the “antiproliferative effect on MM cells alone” value (INA6 cells; no osteoclasts) was “only modest antiproliferative effects” and the “reduction of MM cell proliferative response induced by OCs” value (INA6 cells; INA6 cells co-cultured with osteoclasts, P<0.05) was 50%. The “survival advantage conferred by osteoclasts” value (from here on “survival advantage conferred”) ([4]; INA6 cells, 5 days co-culture, 10 nM) was “almost completely abrogated”, the “survival advantage conferred” value ([4]; MM1.S cells (data not shown)) was “same effect was also noted” and the “survival advantage conferred” value ([4]; primary MM cells, 5 days co-culture, 10 nM) was “almost completely abrogated”. For the same compound, the “reduction of osteoclast number compared to control” value ([5]; 10 nM, 3 weeks, TRAP+ OCs with 3 or more nuclei, p<0.05) was 40-60% and the “dose dependence of decrease in osteoclast number” value ([5]; doses up to 100 nM) was “No dose-dependent effect”.
